Measured values from patent US20080119534A1, “Benzimidazole Derivatives as Therapeutic Agents” (Trans Tech Pharma, Inc, priority 2001, published 2008).
Structures can show the parent of a compound that is named as a salt.

Tests used:
[1] = target: T1, sRAGE (ligand Carboxymethyl Lysine (CML)) (Homo sapiens, UniProt Q15109); assay: ELISA assay: inhibition of sRAGE binding to plate-bound CML; details: sRAGE binding to immobilised CML; concentration at which 50% signal has been inhibited
T1 construct: extracellular domain can be isolated by proteolysis of RAGE to generate soluble RAGE (sRAGE) comprised of the V and C domains
T1 sequence (Q15109 23-342 limits assumed): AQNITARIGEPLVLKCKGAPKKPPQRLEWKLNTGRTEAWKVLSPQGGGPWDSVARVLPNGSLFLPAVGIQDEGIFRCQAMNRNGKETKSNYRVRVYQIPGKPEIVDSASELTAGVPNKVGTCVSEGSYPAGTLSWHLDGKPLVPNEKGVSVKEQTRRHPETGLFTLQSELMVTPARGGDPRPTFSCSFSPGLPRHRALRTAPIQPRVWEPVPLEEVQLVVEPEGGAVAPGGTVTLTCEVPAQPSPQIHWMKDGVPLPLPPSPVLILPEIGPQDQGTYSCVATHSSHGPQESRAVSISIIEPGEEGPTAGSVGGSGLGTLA
Procedure: (§1) S100b, β-amyloid and CML (500 ng/100 μL/well) in 100 mM sodium bicarbonate/sodium carbonate buffer (pH 9.8) is loaded onto the wells of a NUNC Maxisorp flat bottom 96-well microtitre plate. The plate is incubated at 4° C. overnight. The wells are aspirated and treated with 50 mM imidazole buffer saline (pH 7.2) (with 1 mM CaCl2/MgCl2) containing 1% bovine serum albumin (BSA) (300 μL/well) for two h at 37° C.
(§2) Test compounds are dissolved in nanopure water (concentration: 10-100 μM). DMSO may be used as co-solvent. 25 μL of test compound solution in 2% DMSO is added, along with 75 μL sRAGE (4.0×10^−4 mg/mL FAC) to each well and samples are incubated for 1 h at 37° C. The wells are washed 3 times with 155 mM NaCl pH 7.2 buffer saline and are soaked 10 seconds between each wash.
(§3) Non-radioactive binding is performed by adding:
(§4) 10 μL Biotinylated goat F(ab′)2 Anti-mouse IgG. (8.0×10^−4 mg/mL, FAC)
(§5) 10 μL Alkaline phosphatase Streptavidin (3×10^−3 mg/mL FAC)
(§6) 10 μL Polyclonal antibody for sRAGE (FAC 6.0×10^−3 mg/mL)
(§7) to 5 mL 50 mM imidazole buffer saline (pH 7.2) containing 0.2% bovine serum albumin and 1 mM CaCl2. The mixture is incubated for 30 minutes at 37° C. 100 μL complex is added to each well and incubation is allowed to proceed at rt for 1 h. Wells are washed 3 times with wash buffer and soaked 10 s between each wash. 100 μL 1 mg/mL (pNPP) in 1 M diethanolamine (pH adjusted to 9.8 with HCl) is added. Color is allowed to develop in the dark for 1 to 2 h at rt. The reaction is quenched with 10 μL of stop solution (0.5 N NaOH in 50% ethanol) and the absorbance is measured spectrophotometrically with a microplate reader at 405 nm.

sRAGE (ligand S-100b) = target: T2, sRAGE (ligand S-100b) (Homo sapiens, UniProt Q15109); assay: ELISA assay: inhibition of sRAGE binding to plate-bound S100b; details: sRAGE binding to immobilised S100b; concentration at which 50% signal has been inhibited
T2 construct: extracellular domain can be isolated by proteolysis of RAGE to generate soluble RAGE (sRAGE) comprised of the V and C domains
T2 sequence (Q15109 23-342 limits assumed): as above
Procedure: as §1, §2, §3, §4, §5, §6, §7

sRAGE (ligand Amyloid-β) = target: T3, sRAGE (ligand Amyloid-β) (Homo sapiens, UniProt Q15109); assay: ELISA assay: inhibition of sRAGE binding to plate-bound β-amyloid; details: sRAGE binding to immobilised β-amyloid; concentration at which 50% signal has been inhibited
T3 construct: extracellular domain can be isolated by proteolysis of RAGE to generate soluble RAGE (sRAGE) comprised of the V and C domains
T3 sequence (Q15109 23-342 limits assumed): as above
Procedure: as §1, §2, §3, §4, §5, §6, §7

Row | SMILES | IC50 [1] | IC50 (sRAGE (ligand S-100b)) | IC50 (sRAGE (ligand Amyloid-β))
1 | CCN(CC)CCCOc1ccc2nc([C@H](N)Cc3ccc(OCc4ccccc4)cc3)n(Cc3ccccc3)c2c1 [Example 14, 2-[(1R)-2-(4-Benzyloxyphenyl)-1-amino-1-ethyl]-3-benzyl-5-(3-diethylamino-1-propoxy)benzimidazole] | 5 to 10 µM | 5 to 10 µM | 10 to 20 µM
2 | CCCCn1c([C@@H](Cc2ccc(OCCc3ccc(Cl)cc3)cc2)NC(=O)OC(C)(C)C)nc2ccc(OCCCN(CC)CC)cc21 [Example 9] | 0.5 to 1 µM | 0.5 to 1 µM | 0.5 to 1 µM
3 | CCN(CC)CCCOc1ccc2nc([C@H](N)Cc3ccc(OCc4ccccc4)cc3)n(CCCN(CC)CC)c2c1 [Example 12, 2-[(1R)-2-(4-Benzyloxyphenyl)-1-amino-1-ethyl]-3-(3-diethylamino-1-propyl)-5-(3-diethylamino-1-propoxy)benzimidazole] | 1 to 5 µM | 1 to 5 µM | 1 to 5 µM
4 | CCCn1c([C@@H](Cc2ccc(OCc3ccccc3)cc2)NC(=O)OC(C)(C)C)nc2ccc(OCCCN(CC)CC)cc21 [Example 15, 2-[(1R)-2-(4-Benzyloxyphenyl)-1-(tert-butoxycarbonylamino)-1-ethyl]-3-propyl-5-(3-diethylamino-1-propoxy)benzimidazole] | 5 to 10 µM | 5 to 10 µM | 5 to 10 µM
5 | CCN(CC)CCCOc1ccc2nc([C@@H](Cc3ccc(OCc4ccccc4)cc3)NC(=O)OC(C)(C)C)n(CC)c2c1 [Example 11, 2-[(1R)-2-(4-Benzyloxyphenyl)-1-(tert-butoxycarbonylamino)-1-ethyl]-3-ethyl-5-(3-diethylamino-1-propoxy)benzimidazole] | 1 to 5 µM | 1 to 5 µM | 1 to 5 µM
6 | CCCCn1c([C@@H](Cc2ccc(OCc3ccccc3)cc2)NC(=O)OC(C)(C)C)nc2ccc(OCCCN(CC)CC)cc21 [Example 1, 2-[(1R)-2-(4-Benzyloxyphenyl)-1-tert-butoxycarbonylamino-1-ethyl]-3-butyl-5-(3-diethylamino-1-propoxy)benzimidazole] | 0.5 to 1 µM | 1 to 5 µM | 1 to 5 µM
7 | CCCCn1c(C(Cc2cccc(OCc3ccccc3)c2)NC(=O)OC(C)(C)C)nc2ccc(OCCCN(CC)CC)cc21 (centres unmarked) [Example 7, 2-[2-(3-Benzyloxyphenyl)-1-(tert-butoxycarbonylamino)-1-ethyl]-3-butyl-5-(3-diethylamino-1-propoxy)benzimidazole] | 1 to 5 µM | 1 to 5 µM | 1 to 5 µM
8 | CCN(CC)CCCOc1ccc2nc([C@@H](Cc3ccc(OCc4ccccc4)cc3)NC(=O)OC(C)(C)C)n(CCCN(CC)CC)c2c1 [Example 10, 2-[(1R)-2-(4-Benzyloxyphenyl)-1-(tert-butoxycarbonylamino)-1-ethyl]-3-(3-diethylamino-1-propyl)-5-(3-diethylamino-1-propoxy)benzimidazole] | 1 to 5 µM | 1 to 5 µM | 5 to 10 µM
9 | CCCCn1c([C@H](N)Cc2ccc(OCc3ccccc3)cc2)nc2ccc(OCCCN(CC)CC)cc21 [Example 2, 2-[(1R)-2-(4-Benzyloxyphenyl)-1-amino-1-ethyl]-3-butyl-5-(3-diethylamino-1-propoxy)benzimidazoleTrihydrochloride] | 1 to 5 µM | 1 to 5 µM | 1 to 5 µM
10 | CCN(CC)CCCOc1ccc2[nH]c([C@@H](Cc3ccc(OCc4ccccc4)cc3)NC(=O)OC(C)(C)C)nc2c1 [Example 5, 2-[(1R)-2-(4-Benzyloxyphenyl)-1-tert-butoxycarbonylamino-1-ethyl]-6-(3-diethylamino-1-propoxy)benzimidazole] | 5 to 10 µM | 10 to 20 µM | –
11 | CCCCn1c([C@H](N)Cc2ccc(OCc3ccccc3)cc2)nc2cc(OCCCN(CC)CC)ccc21 [Example 4, 2-[(1R)-2-(4-Benzyloxyphenyl)-1-amino-1-ethyl]-3-butyl-6-(3-diethylamino-1-propoxy)benzimidazole] | 1 to 5 µM | 1 to 5 µM | 1 to 5 µM
12 | CCN(CC)CCCOc1ccc2[nH]c([C@H](N)Cc3ccc(OCc4ccccc4)cc3)nc2c1 [Example 6, 2-[(1R)-2-(4-Benzyloxyphenyl)-1-amino-1-ethyl]-6-(3-diethylamino-1-propoxy)benzimidazole] | 1 to 5 µM | 5 to 10 µM | 5 to 10 µM
13 | CCN(CC)CCCOc1ccc2nc([C@@H](Cc3ccc(OCc4ccccc4)cc3)NC(=O)OC(C)(C)C)n(Cc3ccccc3)c2c1 [Example 13, 2-[(1R)-2-(4-Benzyloxyphenyl)-1-(tert-butoxycarbonylamino)-1-ethyl]-3-benzyl-5-(3-diethylamino-1-propoxy)benzimidazole] | 5 to 10 µM | 5 to 10 µM | 5 to 10 µM
14 | CCCCn1c([C@@H](Cc2ccc(OCC)cc2)NC(=O)OC(C)(C)C)nc2ccc(OCCCN(CC)CC)cc21 [Example 8, 2-[(1R)-2-(4-Ethoxyphenyl)-1-(tert-butoxycarbonylamino)-1-ethyl]-3-butyl-5-(3-diethylamino-1-propoxy)benzimidazole] | 1 to 5 µM | 5 to 10 µM | 5 to 10 µM
15 | CCCn1c([C@H](N)Cc2ccc(OCc3ccccc3)cc2)nc2ccc(OCCCN(CC)CC)cc21 [Example 16, 2-[(1R)-2-(4-Benzyloxyphenyl)-1-amino-1-ethyl]-3-propyl-5-(3-diethylamino-1-propoxy)benzimidazole] | 10 to 20 µM | 5 to 10 µM | 10 to 20 µM
16 | CCCCn1c([C@@H](Cc2ccc(OCc3ccccc3)cc2)NC(=O)OC(C)(C)C)nc2cc(OCCCN(CC)CC)ccc21 [Example 3, 2-[(1R)-2-(4-Benzyloxyphenyl)-1-tert-butoxycarbonylamino-1-ethyl]-3-butyl-6-(3-diethylamino-1-propoxy)benzimidazole] | 1 to 5 µM | 1 to 5 µM | 1 to 5 µM
